One may read the inhibition as the drop in the measured response relative to a control, in per cent.

In ChEMBL document CHEMBL6153019, “A series of indole-derived γ-hydroxy propiolate esters as potent anti-inflammatory agents: Design, synthesis, in-vitro and in-vivo biological studies” (Eur J Med Chem, 2024) one finds Activity, viability and inhibition data, which are given here for six compounds.

For series [1], the system named is Mus musculus. In words: Anti-inflammatory activity against female Kunming mouse model xylene-induced auricle edema assessed as inhibition of ear swelling at 100 mg/kg, IP measured after 1 hr relative to control. Details: scale not given: the % may be the effect or the level left. The class given is functional.
Series [2] can be described thus: Cytotoxicity against mouse RAW264.7 cells assessed as cell survival at 10 uM preincubated for 4 hrs followed by compound addition and measured after 20 hrs by MTT assay relative to control. It counts as toxicity, cell-based. The settings on record: read-out: Survival. On the technique in general: Tetrazolium dyes change colour on reduction, which living cells bring about.

Series [3] deals with Mus musculus. In words: Anti-inflammatory activity against female Kunming mouse model xylene-induced auricle edema assessed as inhibition of ear swelling at 50 mg/kg, ip measured after 1 hr relative to control. The class given is functional. Details: scale not given: the % may be the effect or the level left.
Series [4] relates to RAW264.7. In words: Anti-inflammatory activity against LPS-Induced mouse RAW264.7 cells assessed as inhibition of TXB-2 release at 1 uM incubated for 24 hrs by LT determination assay relative to control. It counts as functional.
The test system of series [5] is RAW264.7. As to the kind of experiment: Anti-inflammatory activity against LPS-Induced mouse RAW264.7 cells assessed as inhibition of Nitric oxide release at 10 uM measured after 18 hrs by Griess reagent assay relative to control. Details: Activity: scale not given: the % may be the effect or the level left. The settings on record: for inhibition at 10 µM: Mus musculus, RAW264.7. It counts as functional. A general note: The Griess reaction detects nitrite, a stable product of nitric oxide.

Series [6] concerns RAW264.7. In words: Anti-inflammatory activity against LPS-Induced mouse RAW264.7 cells assessed as inhibition of PGE2 production at 1uM measured after 24 hrs by ELISA method. The class given is functional. A general note: In an ELISA, binding on a coated surface is turned into a signal by an enzyme label.
The test system of series [7] is RAW264.7. As to the kind of experiment: Anti-inflammatory activity against LPS-Induced mouse RAW264.7 cells assessed as inhibition of LT release at 5 uM incubated for 24 hrs by LT determination assay relative to control. It counts as functional.
Series [8] can be described thus: Cytotoxicity against mouse RAW264.7 cells assessed as cell survival at 5 uM preincubated for 4 hrs followed by compound addition and measured after 20 hrs by MTT assay relative to control. The class given is toxicity, cell-based. The settings on record: read-out: Survival.
The test system of series [9] is RAW264.7. As to the kind of experiment: Anti-inflammatory activity against LPS-Induced mouse RAW264.7 cells assessed as inhibition of Nitric oxide release at 1 uM measured after 18 hrs by Griess reagent assay relative to control. It counts as functional.
Series [10] relates to RAW264.7. In words: Anti-inflammatory activity against LPS-Induced mouse RAW264.7 cells assessed as inhibition of TXB-2 release at 5 uM incubated for 24 hrs by LT determination assay relative to control. The class given is functional. Details: scale not given: the % may be the effect or the level left.
Series [11] has as its system RAW264.7. In words: Anti-inflammatory activity against LPS-Induced mouse RAW264.7 cells assessed as inhibition of PGE2 production at 10 uM measured after 24 hrs by ELISA method. The class given is functional.
Series [12] has as its system RAW264.7. In words: Anti-inflammatory activity against LPS-Induced mouse RAW264.7 cells assessed as inhibition of PGF1 production at 1 uM incubated for 24 hrs by ELISA method relative to control. It counts as functional.
Series [13] relates to RAW264.7. As to the kind of experiment: Antiproliferative activity against mouse RAW264.7 cells assessed as tumor growth inhibition at 10 uM preincubated for 4 hrs followed by compound addition and measured after 20 hrs by MTT assay. The class given is functional, cell-based.
For series [14], the system named is RAW264.7. As to the kind of experiment: Anti-inflammatory activity against LPS-Induced mouse RAW264.7 cells assessed as inhibition of PGF1 production at 5 uM incubated for 24 hrs by ELISA method relative to control. The class given is functional.
The test system of series [15] is RAW264.7. In words: Anti-inflammatory activity against LPS-Induced mouse RAW264.7 cells assessed as inhibition of PGE2 production at 5 uM measured after 24 hrs by ELISA method. The class given is functional, cell-based.
Series [16] has as its system RAW264.7. In words: Anti-inflammatory activity against LPS-Induced mouse RAW264.7 cells assessed as inhibition of LT release at 1 uM incubated for 24 hrs by LT determination assay relative to control. The class given is functional.
Series [17] relates to RAW264.7. In words: Anti-inflammatory activity against LPS-Induced mouse RAW264.7 cells assessed as inhibition of Nitric oxide release at 1 uM measured after 18 hrs by Griess reagent assay. The class given is functional, cell-based.
Series [18] has as its system RAW264.7. In words: Anti-inflammatory activity against LPS-Induced mouse RAW264.7 cells assessed as inhibition of COX-2 expression level at 5 uM incubated for 24 hrs by ELISA method relative to control. The class given is functional.
Series [19] concerns RAW264.7. In words: Anti-inflammatory activity against LPS-Induced mouse RAW264.7 cells assessed as inhibition of COX-2 at 5 uM incubated for 24 hrs by ELISA method relative to control. It counts as functional.
For series [20], the system named is RAW264.7. In words: Anti-inflammatory activity against LPS-Induced mouse RAW264.7 cells assessed as increase inhibition of PGE2 production measured after 24 hrs by ELISA method. The class given is functional, cell-based.
The test system of series [21] is Mus musculus. In words: Anti-inflammatory activity against female Kunming mouse model xylene-induced auricle edema assessed as inhibition rate of ear swelling measured after 1 hr. It counts as functional, organism-based.
The test system of series [22] is RAW264.7. As to the kind of experiment: Anti-inflammatory activity against LPS-Induced mouse RAW264.7 cells assessed as inhibition in COX-2 expression at 1uM incubated for 24 hrs by ELISA method. The class given is functional, cell-based.
Series [23] has as its system RAW264.7. In words: Anti-inflammatory activity against LPS-induced mouse RAW264.7 cells assessed as inhibition of 5-LOX protein expression at 5 uM incubated for 24 hrs by ELISA method relative to control. The class given is functional.
Series [24] has as its system RAW264.7. As to the kind of experiment: Anti-inflammatory activity against LPS-Induced mouse RAW264.7 cells assessed as inhibition of COX-1 expression level at 5 uM incubated for 24 hrs by ELISA method relative to control. It counts as functional.
For series [25], the system named is RAW264.7. In words: Anti-inflammatory activity against LPS-induced mouse RAW264.7 cells assessed as downregulation of COX-1 protein expression level incubated for 24 hrs by ELISA method. The class given is functional, cell-based.
The subject of series [26] is RAW264.7. In words: Anti-inflammatory activity against LPS-induced mouse RAW264.7 cells assessed as inhibition of COX-1 expression at 5 uM incubated for 24 hrs by ELISA method relative to control. It counts as functional.

Calls of active or inactive are those of the source. The rule behind the calls is not given here.

Turning to `Cc1ccc(-c2cc(C(F)(F)F)nn2-c2ccc(S(N)(=O)=O)cc2)cc1` [CELECOXIB], in the series on Mus musculus [1], the Activity turned out to be 93.23%.

As for `COC(=O)C#CC1(O)C(=O)N(Cc2cccc3ccccc23)c2ccc(Cl)cc21` (configuration not stated), the viability at 20 h, 10 µM in series [2] was found to be 99.9%.

With `COC(=O)C#CC1(O)C(=O)N(C)c2cccc(Cl)c21` (configuration not stated), the viability at 20 h, 10 µM in series [2] was determined as 86.7%.

On to `COC(=O)C#CC1(O)C(=O)N(Cc2ccccc2)c2cc(Cl)ccc21` (configuration not stated), for which the Activity with Mus musculus [3] is 78.14%; in the series on RAW264.7 [10], 21.14%; in the series on Mus musculus [1], 85.43%; in the series with Mus musculus [21], “Dose-dependent-effect”. Further, the inhibition at 1 µM in the series with RAW264.7 [4] was found to be 25.4%; in the series on RAW264.7 [6], 58%; in the series on RAW264.7 [9], 50%; with RAW264.7 [12] it was 16%; with RAW264.7 [16], 25.9%. Further, the inhibition at 10 µM in the series on RAW264.7 [5] was 101%; with RAW264.7 [11], 94.5%. Moreover, the inhibition at 5 µM in the series with RAW264.7 [7] was determined as 11%; in the series on RAW264.7 [14], 16.6%; with RAW264.7 [18], 38.8%; in the series on RAW264.7 [19] it was 38.8%. Moreover, the viability at 20 h, 5 µM in series [8] came to 57.9%. Also, the result in the series with RAW264.7 [13] was Active. For the same compound, the inhibition entry in the series with RAW264.7 [15], in the series on RAW264.7 [17] and in the series with RAW264.7 [22] was “Active” each time. Also, the inhibition entry in the series on RAW264.7 [20] is “Dose-dependent-effect”.

On to `COC(=O)C#CC1(O)C(=O)N(Cc2cccc3ccccc23)c2cc(Cl)ccc21` (configuration not stated), for which the inhibition at 10 µM in the series on RAW264.7 [5] was determined as 102%. Besides, the inhibition at 5 µM in the series on RAW264.7 [23] came out at 71.2%; in the series with RAW264.7 [24] it was 35.3%; in the series on RAW264.7 [26], 35.3%; with RAW264.7 [18] it was 42.6%; in the series with RAW264.7 [19] it was 42.6%. For the same compound, in the series with RAW264.7 [25], the inhibition entry is “Active”.

For the compound `COC(=O)C#CC1(O)C(=O)Nc2ccc(C)cc21` (configuration not stated), in the series on RAW264.7 [5], the Activity was found to be 81.68%.
